Tests used:
GBV-B virus = assay: Infection of enhanced cells with GBV-B virus-containing serum by electroporation (Taqman); assay type: cell-based
Description: GBV-B virus inoculum produced upon passage of virus in tamarins was used to infect Huh7 and cB76.1/Huh7 enhanced cells. GBV-B containing tamarin serum was layered onto 10^5 cells in multiwell-6-wells 1 day after plating at multiplicity of infection of 0.75 G.E./cell. After 6 hours adsorption, the virus-containing serum was removed, the cells extensively washed and incubated in the serum-free DMEM. Cells from individual wells were lyzed with Trizol at different times and GBV-B RNA quantified by Taqman.
As an alternative method, 10^6 cells were mixed with undiluted virus-containing serum (10^6 G.E.) and subjected to electroporation. The cells were plated at a density of 10^5/well and treated as described for experiments of RNA electroporation. Duplicate wells were run in parallel, with and without interferon. Cells from individual wells were lyzed with Trizol at different times and GBV-B RNA quantified by Taqman. The amount of G.E. detectable immediately after electroporation and wash was 10^3 G.E., it was undetectable at 24 and 48 hours, at day 3 it was 10^4 G.E.; at day 6 it was 5×10^3 (possibly inhibition due to cell density); in corresponding wells treated with interferon the RNA was undetectable. […] RNA was quantified at day 13 and 16 giving a figure corresponding to 4×10^3 G.E. and 1.2×10^4 G.E. respectively. […]

HCV replicon = assay: Effect of test compound on HCV replicon RNA in 10A Huh7 cells (TaqMan, neo primer set); assay type: cell-based; conditions: 10A cells (HCV replicon in Huh7), up to 3 days, replicon RNA normalized to GAPDH
Description: (§1) Huh7 cell clones carrying GBV-B or HCV replicons were used to test the effect of human interferon alpha-2b. Cells (1×10^5) were plated into each well of a series of wells of Multiwell-6-wells plates (falcon cat N. 35-3046) in medium without G418. After 16 hours the medium was discarded and increasing concentrations of the test compound in fresh medium were added to each series of wells. Controls were run using the specific compound solvent at the appropriate dilution.
Cells were grown up to 3 days in the presence of compounds or compound solvent without a compound, avoiding cell confluence, and finally lysed with TRIzol. Total RNA was purified as described in the TRizol protocol (Life Technologies). Ten out of 100 μl of total RNA were used in each reaction.
Taq Man analysis was performed using a neomycin primer set (taq NEO 1, GATGGATTGCACGCAGGTT (SEQ. ID. NO. 17), and taq NEO 5, […] (SEQ. ID. NO. 18)) and a NEO probe (1,6-carboxyfluorescein-TCCGGCCGCTTGGGT GGAG (SEQ. ID. NO. 19)-N,N,N′,N′-tetramethyl-6-carboxyrhodamine). Human GAPDH mRNA quantified with a specific primer set (PE Applied Biosystems) was used as an endogenous reference. GBV-B RNA extracted from mock-treated cells was used as a calibrator. Results from two independent experiments were analyzed using both the Comparative Ct Method and the standard curve method. […]

GBV-B replicon = assay: Effect of test compound on GBV-B replicon RNA in B76.1/Huh7 cells (TaqMan, neo primer set); assay type: cell-based
Description: as §1
[…] Total RNA was purified as described in the TRizol protocol (Life Technologies). Ten out of 100 μl of total RNA were used in each reaction.
Taq Man analysis was performed using a neomycin primer set (taq NEO 1, GATGGATTGCACGCAGGTT (SEQ. ID. NO. 17), and taq NEO 5, […] (SEQ. ID. NO. 18)) and a NEO probe (1,6-carboxyfluorescein-TCCGGCCGCTTGGGT GGAG (SEQ. ID. NO. 19)-N,N,N′,N′-tetramethyl-6-carboxyrhodamine). Human GAPDH mRNA quantified with a specific primer set (PE Applied Biosystems) was used as an endogenous reference. GBV-B RNA extracted from mock-treated cells was used as a calibrator. Results from two independent experiments were analyzed using both the Comparative Ct Method and the standard curve method.
Experiments were performed using 10^5 cells of B76.1/Huh7 and 10A plated into individual wells of 6-multiwell plate and incubated overnight in the absence of G418. […]

[1] = test system: GBV-B full-length genomic FL3 RNA; assay: Replication of full-length GBV-B FL3 RNA transfected in cB76.1/Huh7 enhanced cells (Taqman); assay type: cell-based
From the text: GBV-B RNA was quantified by a real-time 5′ exonuclease PCR (TaqMan) assay using a primer/probe set that recognized a portion of the GBV-B 5′UTR. The primers (GBV-B-F3, GTAGGCGGCGGGACTCAT (SEQ. ID. NO. 14), and GBV-B-R3, TCAGGGCCATCCAAGTCAA (SEQ. ID NO. 15)) and probe (GBV-B-P3,6-carboxyfluorescein-[…] (SEQ. ID. NO. 16)-N,N,N′,N′-tetramethyl-6-carboxyrhodamine) were selected using the Primer Express software (PE Applied Biosystems). The fluorescent probe was obtained from PE Applied Biosystems. The primers were used at 10 pmol/50 μl reaction, and the probe was used at 5 pmol/50 μl reaction.
PCR was were performed using a TaqMan Gold RT-PCR kit (PE Applied Biosystems). […]
RNA transcribed from a plasmid containing the first 2000 nucleotides of the GBV-B genome was used as a standard to establish genome equivalents. […] RNA was quantified by absorbance at 260 nm and stored at −80° C.
All reactions were run in duplicate by using the ABI Prism 7700 Sequence Detection System (PE Applied Biosystems). […] Results from two independent experiments were analyzed using both the Comparative Ct Method and the standard curve method.
GBV-B full-length genomic FL3 RNA (EMBL accession number AJ277947) was transfected in Huh7 and in enhanced cells cB76.1/Huh7 in parallel with the corresponding GAA control. Intracellular GBV-B RNA was measured by Taqman in a time-course experiment.

RepB replication = assay: beta-lactamase stain of bla-RepB transfected cB76.1/Huh7 cells; assay type: cell-based, GBV-B
Description: Immediately after electric pulses cells were diluted in 8 ml complete Dulbecco's Modified Eagle Medium (DMEM) and processed with different protocols depending on the selection/tracer used. In the case of neo-constructs transformation, cells were divided in 3 plates of 15 cm diameter and on the following day the selecting antibiotic G418 (Sigma G-9516) was added at a concentration of 0.250, 0.5 or 1 mg/ml. […] Surviving clones were picked-up and expanded by growing them in individual plates. When a bla reporter gene was used, 1.5 ml, 1.0 ml and 0.5 ml of transfected cells suspension were plated in each well of Multiwell-6-wells plate (Falcon cat. N. 35-3046) to be stained respectively at 24, 48 and 72 hours.
Aurora substrate system “CCF4” was used to measure β-lactamase activity. When quantitative PCR was used to measure transient replication, cells were plated 1-2×10^5/well in “6-multi-well plate”. After 3 days total RNA was purified as described in the TRIzol protocol (Life Technologies) and 10 out of 100 μl of total RNA were used in individual TaqMan reactions.
The increased efficiency of replication of RepB RNA in cB76.1/Huh7 cells compared to wild type Huh7 cells was also monitored using a colorimetric assay after transfection of RNA transcribed from bla-RepB plasmid. The bla-RepB plasmid expresses a […] marker in place of the selector neomycin phosphotransferase. […]

In the case of “human interferon alpha-2b [Human alpha-IFN]”, the “GBV-B RNA in cells cultivated in the presence of IFN” value (GBV-B virus; after splits, points up to day 16) is reported as “background signals”, the “GBV-B RNA in treated wells” value (GBV-B virus; day 3 and day 6 after electroporation with virus-containing serum) is reported as “undetectable” and the “IC50 on HCV replicon” value (HCV replicon) is reported as 0.58 U/ml. The “Replicon RNA after curing treatment” value (GBV-B replicon; B76.1/Huh7, 100 U/ml for 15 days in the absence of neomycin, TaqMan at end of treatment) was “disappearance of the selectable RNA replicon molecules”, the “IC50 on GBV-B replicon” value (GBV-B replicon; B76.1/Huh7 cells, up to 3 days, replicon RNA normalized to GAPDH) was 0.45 U/ml and the “Decrease of FL3 RNA amount” value ([1]; cB76.1/Huh7 transfected with FL3, day 6) was 10-20 fold. For the same substance, the “Effect on GAA mutant RNA amount” value ([1]; cB76.1/Huh7 transfected with mutant GAA construct, day 6) was “did not affect” and the “Number of blue cells” value (RepB replication) was “reduced the number of blue cells to background levels”.
